Values after ≈ are worked out from the molar mass of the structure shown. Where two headings read alike, the source gives them in different places.
Legend:
Candida krusei ATCC 6258 = assay: In vitro antifungal broth microdilution test; format: cell-based; settings: 35 °C, RPMI 1640 pH 7.0, CLSI M27-A2 (IC80 value); for MIC: Pichia kudriavzevii, ATCC6258
[1] = system: Trichosporon beigelii 1188; assay: In vitro antifungal broth microdilution test; format: cell-based
Method: Fluconazole (FLU) was used as the standard of a clinically used antimycotic drug. The procedure was performed with twofold dilution of the compounds in RPMI 1640 (Sevapharma a.s., Prague, Czech Republic) buffered to pH 7.0 with 0.165 mol of 3-morpholino-propane-1-sulfonic acid (MOPS, Sigma, Germany). The final concentrations of the compounds ranged from 500 to 0.975 μmol/L. Drug–free controls were included. The MIC determination was performed according to the CLSI (formerly NCCLS) reference protocol M27-A2 for yeasts (IC80 value) and M38-A for moulds (IC50 value). […] The values of MICs were determined after 24 and 48 h of static incubation at 35 °C. For T. mentagrophytes, the final MICs were determined after 72 and 120 h of incubation.

[2] = system: Aspergillus fumigatus 231; assay: In vitro antifungal broth microdilution test; format: cell-based; settings: 35 °C, RPMI 1640 pH 7.0, CLSI M38-A (IC50 value); for MIC: Aspergillus fumigatus, 231
Absidia corymbifera 272 = assay: In vitro antifungal broth microdilution test; format: cell-based; settings: 35 °C, RPMI 1640 pH 7.0, CLSI M38-A (IC50 value); for MIC: Lichtheimia corymbifera, 272
[3] = system: Trichophyton mentagrophytes 445; assay: In vitro antifungal broth microdilution test; format: cell-based
[4] = Lipophilicity determination by RP-HPLC (capacity factor k / log k); format: physicochemical; settings: C18 column, isocratic MeOH 55.0% / H2O 45.0%
Description: A Waters Alliance 2695 XE HPLC separation module and Waters Photodiode Array Detector 2996 (Waters Corp., Milford, MA, USA) were used. A Symmetry® C18 5 μm, 4.6 × 250 mm, Part No. WAT054275, (Waters Corp., Milford, MA, USA) chromatographic column was used. The HPLC separation process was monitored by Millennium32® Chromatography Manager Software, Waters 2004 (Waters Corp., Milford, MA, USA). A mixture of MeOH p.a. (55.0%) and H2O-HPLC– Mili-Q Grade (45.0%) was used as a mobile phase. The total flow of the column was 0.9 mL/min, injection 30 μL, column temperature 30 °C and sample temperature 10 °C. The detection wavelength 210 nm was chosen. The KI methanolic solution was used for the dead time (tD) determination. Retention times (tR) were measured in minutes.
The capacity factors k were calculated using the Millennium32® Chromatography Manager Software according to formula k = (tR - tD)/tD, where tR is the retention time of the solute, whereas tD denotes the dead time obtained via an unretained analyte. Log k, calculated from the capacity factor k, is used as the lipophilicity index converted to log P scale.

[5] = system: photosynthetic electron transport (PET) in spinach chloroplasts; assay: Inhibition of photosynthetic electron transport (PET) in spinach chloroplasts, DCPIP photoreduction; format: biochemical, Spinacia oleracea L.; settings: DCPIP as electron acceptor, phosphate buffer pH 7.2, read-out: PET reduction IC50
Method: Chloroplasts were prepared from spinach (Spinacia oleracea L.) according to Masarovicova and Kralova. The inhibition of photosynthetic electron transport (PET) in spinach chloroplasts was determined spectrophotometrically (Genesys 6, Thermo Scientific, USA) using an artificial electron acceptor 2,6-dichlorophenol-indophenol (DCIPP) according to Kralova et al. and the rate of photosynthetic electron transport was monitored as a photoreduction of DCPIP. The measurements were carried out in phosphate buffer (0.02 mol/L, pH 7.2) containing sucrose (0.4 mol/L), MgCl2 (0.005 mol/L) and NaCl (0.015 mol/L). The chlorophyll content was 30 mg/L in these experiments and the samples were irradiated (~100 W/m^2) from 10 cm distance with a halogen lamp (250 W) using a 4 cm water filter to prevent warming of the samples (suspension temperature 22 °C). The studied compounds were dissolved in DMSO due to their limited water solubility. […] The inhibitory efficiency of the studied compounds was expressed by IC50 values, i.e., by molar concentration of the compounds causing 50% decrease in the oxygen evolution rate relative to the untreated control.

[6] = system: Candida albicans ATCC 44859; assay: In vitro antifungal broth microdilution test; format: cell-based; settings: 35 °C, RPMI 1640 pH 7.0, CLSI M27-A2 (IC80 value); for MIC: Candida albicans, ATCC44859
Candida tropicalis 156 = assay: In vitro antifungal broth microdilution test; format: cell-based; settings: 35 °C, RPMI 1640 pH 7.0, CLSI M27-A2 (IC80 value); for MIC: Candida tropicalis, 156
Candida glabrata 20/I = assay: In vitro antifungal broth microdilution test; format: cell-based; settings: 35 °C, RPMI 1640 pH 7.0, CLSI M27-A2 (IC80 value); for MIC: Nakaseomyces glabratus, 20/I
[7] = Trichosporon beigelii, 1188, 48h, 35 °C, RPMI 1640 pH 7.0, CLSI M27-A2 (IC80 value), read-out: MIC TB
[8] = Trichophyton mentagrophytes, 445, 120 h, pH 7
[9] = Trichophyton mentagrophytes, 445, 72h, RPMI 1640 pH 7.0, CLSI M38-A (IC50 value)
[10] = Trichosporon beigelii, 1188, 24h, 35 °C, RPMI 1640 pH 7.0, CLSI M27-A2 (IC80 value), read-out: MIC TB

| Compound | MIC (Candida krusei ATCC 6258; 24h) [µM] | MIC (Candida krusei ATCC 6258; 48h) [µM] | MIC [1, 7] [µM] | MIC ([2]; 24h) [µM] | MIC ([2]; 48h) [µM] | MIC (Absidia corymbifera 272; 24h) [µM] | MIC (Absidia corymbifera 272; 48h) [µM] | MIC [3, 8] [µM] | MIC [3, 9] [µM] | log k [4] | IC50 [5] [µM] | MIC ([6]; 24h) [µM] | MIC ([6]; 48h) [µM] | MIC (Candida tropicalis 156; 24h) [µM] | MIC (Candida tropicalis 156; 48h) [µM] | MIC (Candida glabrata 20/I; 24h) [µM] | MIC (Candida glabrata 20/I; 48h) [µM] | MIC [1, 10] [µM] | further results |
| --- | --- | --- | --- | --- | --- | --- | --- | --- | --- | --- | --- | --- | --- | --- | --- | --- | --- | --- | --- |
| O=S(=O)(O)c1cc(Br)c(O)c2ncccc12 [Compound 3, 7-Bromo-8-hydroxyquinoline-5-sulfonic acid] | 3.9 (≈ 1.19 µg/mL) | 3.9 (≈ 1.19 µg/mL) | 3.9 (≈ 1.19 µg/mL) | 0.77 (≈ 0.234 µg/mL) | 1.95 (≈ 0.593 µg/mL) | 7.8 (≈ 2.37 µg/mL) | 7.8 (≈ 2.37 µg/mL) | 1.95 (≈ 0.593 µg/mL) | 1.95 (≈ 0.593 µg/mL) | 0.3786 | 33.5 | 0.77 (≈ 0.234 µg/mL) | 1.95 (≈ 0.593 µg/mL) | 1.95 (≈ 0.593 µg/mL) | 3.9 (≈ 1.19 µg/mL) | 1.95 (≈ 0.593 µg/mL) | 3.9 (≈ 1.19 µg/mL) | – | MIC ([1]; Trichosporon beigelii, 1188, 24 h, pH 7, read-out: MIC TB): 3.9 µM (≈ 1.19 µg/mL) |
| O=[N+]([O-])c1cc(S(=O)(=O)O)c2cccnc2c1O [Compound 2, 8-Hydroxy-7-nitroquinoline-5-sulfonic acid] | > 250 | > 250 | > 250 | > 250 | > 250 | > 250 | > 250 | > 250 | > 250 | 0.1479 | – | > 250 | > 250 | > 250 | > 250 | > 250 | > 250 | > 250 | – |
| Oc1ccccc1C=Cc1ccc2c(Cl)cc(Cl)c(O)c2n1 [Compound 9, 5,7-Dichloro-2-[2-(2-hydroxyphenyl)vinyl]quinolin-8-ol] | – | – | – | – | – | – | – | – | – | 1.5854 | – | – | – | – | – | – | – | – | – |
| 8-Hydroxyquinoline-5-sulfonic acid isobutylamide [Compound 5] | – | – | – | – | – | – | – | – | – | 0.3373 | 54.4 | – | – | – | – | – | – | – | MIC CK (Candida krusei ATCC 6258; 24h): 250 µM; MIC CK (Candida krusei ATCC 6258; 48h): 250 µM; MIC TB ([1]; 24h, 35 °C, RPMI 1640 pH 7.0, CLSI M27-A2 (IC80 value)): 250 µM; MIC TB ([1]; 48h, 35 °C, RPMI 1640 pH 7.0, CLSI M27-A2 (IC80 value)): 500 µM; MIC AF ([2]; 24h): 250 µM; MIC AF ([2]; 48h): 250 µM; MIC AC (Absidia corymbifera 272; 24h): 125 µM; MIC AC (Absidia corymbifera 272; 48h): 125 µM; MIC TM ([3]; 72h, RPMI 1640 pH 7.0, CLSI M38-A (IC50 value)): 62.50 µM; MIC TM ([3]; 120h, RPMI 1640 pH 7.0, CLSI M38-A (IC50 value)): 125 µM; MIC CA ([6]; 24h): 125 µM; MIC CA ([6]; 48h): 250 µM; MIC CT (Candida tropicalis 156; 24h): 250 µM; MIC CT (Candida tropicalis 156; 48h): 250 µM; MIC CG (Candida glabrata 20/I; 24h): 125 µM; MIC CG (Candida glabrata 20/I; 48h): 250 µM |
| CC(=O)Nc1ccc2cccc(OC(C)=O)c2n1 [Compound 8, 2-Acetylaminoquinolin-8-yl acetate] | 62.5 | 62.5 | 125 | 62.5 | 62.5 | 62.5 | 62.5 | 62.5 | 62.5 | 0.3583 | 306 | 15.6 | 62.5 | 31.2 | 31.2 | 31.2 | 62.5 | 62.5 | – |
| OC(Cn1cncn1)(Cn1cncn1)c1ccc(F)cc1F [FLU, fluconazole, reference compound] | 3.91 (≈ 1.2 µg/mL) | 15.6 (≈ 4.78 µg/mL) | 0.48 (≈ 0.147 µg/mL) | > 125 | > 125 | > 125 | > 125 | 3.91 (≈ 1.2 µg/mL) | 1.95 (≈ 0.597 µg/mL) | – | – | 0.06 (≈ 0.0184 µg/mL) | 0.12 (≈ 0.0368 µg/mL) | 0.12 (≈ 0.0368 µg/mL) | > 125 | 0.98 (≈ 0.3 µg/mL) | 3.91 (≈ 1.2 µg/mL) | 0.24 (≈ 0.0735 µg/mL) | – |
| O=S(=O)(c1ccc(O)c2ncccc12)N1CCOCC1 [Compound 4, 5-(Morpholine-4-sulfonyl)quinolin-8-ol] | 250 (≈ 73.6 µg/mL) | 500 (≈ 147 µg/mL) | 500 (≈ 147 µg/mL) | 500 (≈ 147 µg/mL) | 500 (≈ 147 µg/mL) | 125 (≈ 36.8 µg/mL) | 250 (≈ 73.6 µg/mL) | 250 (≈ 73.6 µg/mL) | 250 (≈ 73.6 µg/mL) | 0.3293 | – | 125 (≈ 36.8 µg/mL) | 500 (≈ 147 µg/mL) | 500 (≈ 147 µg/mL) | 500 (≈ 147 µg/mL) | 500 (≈ 147 µg/mL) | 500 (≈ 147 µg/mL) | 500 (≈ 147 µg/mL) | – |

Reference: PMC6256987, “Investigating the Activity Spectrum for Ring-Substituted 8-Hydroxyquinolines” (Molecules, 2010)
